Results taken from US7375083B2, “Pharmaceutical compositions for prevention of overdose or abuse” (Shire LLC, priority 2003, dated 2008).
Values joined by “and” are separate entries in the source; they are usually repeats but may differ in a detail not shown here. Equal values may be shown once. Read-outs that look alike come from different tables or passages of the source.

Experiments:
[1] = Crossover pharmacokinetics in dogs, oral vs 30-min intravenous infusion, LC-MS/MS; assay type: in vivo, male beagle dogs; details: for AUC(0-inf): read-out: AUC(inf) of L-lysine-d-amphetamine; for Cmax: read-out: Cmax of L-lysine-d-amphetamine; for MRT: read-out: MRT of L-lysine-d-amphetamine; for Vd: read-out: Vss of L-lysine-d-amphetamine; for half-life: read-out: t1/2 of L-lysine-d-amphetamine (converted)
Source text: This was a non-randomized, two-treatment crossover study. All animals were maintained on their normal diet and were fasted overnight prior to each dose administration. L-lysine-d-amphetamine dose was based on the body weight measured on the morning of each dosing day. The actual dose delivered was based on syringe weight before and after dosing. Serial blood samples were obtained from each animal by direct venipuncture of a jugular vein using vacutainer tubes containing sodium heparin as the anticoagulant. Derived plasma samples were stored frozen until shipment to the Quest Pharmaceutical Services, Inc. (Newark, Del.). Pharmacokinetic analysis of the plasma assay results was conducted by Calvert. Animals were treated as follows:
Oral: The test article was administered to each animal via a single oral gavage. On Day 1, animals received the oral dose by gavage using an esophageal tube attached to a syringe. Dosing tubes were flushed with approximately 20 mL tap water to ensure the required dosing solution was delivered.
Intravenous: On Day 8, animals received L-lysine-d-amphetamine as a single 30-minute intravenous infusion into a cephalic vein.
Blood: Serial blood samples (2 mL) were collected using venipuncture tubes containing sodium heparin. Blood samples were taken at 0, 0.25, 0.5, 1, 2, 4, 8, 12, 24, 48, and 72 hours post-oral dosing. […] Collected blood samples were chilled immediately.
Plasma: Plasma samples were obtained by centrifugation of blood samples. Duplicate plasma samples (about 0.2 mL each) were transferred into prelabeled plastic vials and stored frozen at approximately −70° C.
Microsoft Excel (Version 6, Microsoft Corp., Redmond, Wash.) was used for calculation of mean plasma concentration and graphing of the plasma concentration-time data. Pharmacokinetic analysis (non-compartmental) was performed using the WinNonlin® software program (Version 4.1, Pharsight, Inc. Mountain View, Calif.). The maximum concentration, Cmax, and the time to Cmax, Tmax, were observed values. The area under the plasma concentration-time curve (AUC) was determined using linear-log trapezoidal rules. The apparent terminal rate constant (λz) was derived using linear least-squares regression with visual inspection of the data to determine the appropriate number of points (minimum of 3 data points) for calculating λz. The AUC(0-inf) was calculated as the sum of AUC(0-t) and Cpred/λz, where Cpred was the predicted concentration at the time of the last quantifiable concentration. The plasma clearance (CL/F) was determined as the ratio of Dose/AUC (0-inf). The mean residence time (MRT) was calculated as the ratio of AUMC(0-inf)/AUC (0-inf), where AUMC(0-inf) was the area under the first moment curve from the time zero to infinity. The volume of distribution at steady state (Vss) was estimated as CL*MRT. Half-life was calculated as In2/λz. The oral bioavailability (F) was calculated as the ratio of AUC(0-inf) following oral dosing to AUC(0-inf) following intravenous dosing. Descriptive statistics (mean and standard deviation) of the pharmacokinetic parameters were calculated using Microsoft Excel.
Blood samples were collected up to 24 and 72 hour after the intravenous and oral does, respectively. Plasma samples were analyzed using a LC-MS/MS assay which provided an LLOQ of 1 ng/mL for both analytes.

Male Sprague-Dawley rats = test: Locomotor activity after intranasal administration with and without CMC; assay type: in vivo; details: 1.0 mg/kg
Sprague Dawley rats = test: Single-dose oral toxicity; assay type: in vivo; details: rat; for Observable signs: single oral dose
Method: Three male and three female Sprague Dawley rats per group were given a single oral administration of L-lysine-d-amphetamine at 0.1, 1.0, 10, 60, 100 or 1000 mg/kg (Table 44).
Animals found dead, or sacrificed moribund were necropsied and discarded. A total of one animal/sex/group was necropsied upon scheduled or unscheduled death.

[2] = Intranasal bioavailability in rats, LC/MS/MS; details: male, Sprague-Dawley, rat, plasma, inhaled or intranasal, 3 mg/kg
[3] = Bolus intravenous bioavailability in rats, LC/MS/MS; details: rat
[4] = male beagle dogs 1-3 and Mean, 30-min iv infusion, 2 mg/kg/h (free form), 2 mg/kg
[5] = male beagle dogs 1-3 and Mean, oral, 2 mg/kg (free form), 2 mg/kg
[6] = male, beagle, dog, plasma, iv, 1 mg/kg, male beagle dog, IV, 1 mg/kg d-amphetamine base, mean
[7] = male, beagle, dog, plasma, iv, 2 mg/kg, male beagle dogs 1-3 and Mean, 30-min iv infusion, 2 mg/kg/h (free form)
[8] = male, beagle, dog, plasma, po, 1 mg/kg, male beagle dog, oral, 1 mg/kg d-amphetamine base, mean

CC(Cc1ccccc1)NC(=O)C(N)CCCCN [L-lysine-d-amphetamine, 2,6-diaminohexanoic acid-(1-methyl-2-phenylethyl)-amide]
Tmax ([1]; dog, plasma, male beagle dogs 1-3 and median, 30-min iv infusion, 2 mg/kg/h (free form), read-out: Tmax of L-lysine-d-amphetamine): 29.4 min
Tmax ([1]; dog, plasma, male beagle dogs 1-3 and median, oral, 2 mg/kg (free form), read-out: Tmax of L-lysine-d-amphetamine): 30 min
AUC(0-t) of L-lysine-d-amphetamine [1, 4]: 898.2 ng·h/mL
AUC(inf) of L-lysine-d-amphetamine [1, 4]: 900.2 ng·h/mL and 1076.1 ng·h/mL
CL of L-lysine-d-amphetamine [1, 4]: 37.03 mL/min/kg and 30.98 mL/min/kg
Cmax of L-lysine-d-amphetamine [1, 4]: 1470.3 ng/mL
MRT of L-lysine-d-amphetamine [1, 4]: 21.6 min and 19.2 min
Vss of L-lysine-d-amphetamine [1, 4]: 0.8074 L/kg
t1/2 of L-lysine-d-amphetamine [1, 4]: 43.2 min
AUC(0-t) of L-lysine-d-amphetamine [1, 5]: 318.0 ng·h/mL
AUC(inf) of L-lysine-d-amphetamine [1, 5]: 312.0 ng·h/mL and 277.1 ng·h/mL
CL/F of L-lysine-d-amphetamine [1, 5]: 106.8 mL/min/kg and 120.3 mL/min/kg
F of L-lysine-d-amphetamine [1, 5]: 34.3% and 34.0% and 30.8%
MRT of L-lysine-d-amphetamine [1, 5]: 40.8 min
t1/2 of L-lysine-d-amphetamine [1, 5]: 27 min and 14.4 min
AUC(0-inf) [1, 6]: 964 ng·h/mL
Cmax [1, 6]: 1650 ng/mL
MRT [1, 6]: 19.8 min
Vd [1, 6]: 0.689 L/kg
half-life [1, 6]: 52.8 min
Tmax ([1]; male, beagle, dog, plasma, iv, 1 mg/kg, read-out: Tmax of L-lysine-d-amphetamine (median)): 29.4 min
AUC(0-t) ([1]; male, beagle, dog, plasma, iv, 2 mg/kg, male beagle dogs 1-3 and Mean, 30-min iv infusion, 2 mg/kg/h (free form), read-out: AUC(0-t) of L-lysine-d-amphetamine): 914 ng·h/mL
AUC(0-inf) [1, 7]: 917 ng·h/mL
clearance ([1]; male, beagle, dog, plasma, iv, 2 mg/kg, male beagle dogs 1-3 and Mean, 30-min iv infusion, 2 mg/kg/h (free form), read-out: CL of L-lysine-d-amphetamine (converted)): 36.4 mL/min/kg
Cmax [1, 7]: 1650 ng/mL
MRT [1, 7]: 18 min
Vd [1, 7]: 0.656 L/kg
half-life [1, 7]: 63 min
AUC(0-inf) [1, 8]: 319 ng·h/mL
CL/F ([1]; male, beagle, dog, plasma, po, 1 mg/kg, male beagle dog, oral, 1 mg/kg d-amphetamine base, mean, read-out: CL/F of L-lysine-d-amphetamine (converted)): 106 mL/min/kg
Cmax [1, 8]: 328 ng/mL
MRT [1, 8]: 48.6 min
half-life [1, 8]: 23.4 min
bioavailability ([1]; male, beagle, dog, plasma, po, 1 mg/kg, read-out: F (absolute oral bioavailability) of L-lysine-d-amphetamine): 33%
Tmax ([1]; male, beagle, dog, plasma, po, 1 mg/kg, read-out: Tmax of L-lysine-d-amphetamine (median)): 30 min
Percent d-amphetamine (Male Sprague-Dawley rats; activity above baseline relative to d-amphetamine): 35%
Increase in activity over baseline compared to d-amphetamine dosed animals (Male Sprague-Dawley rats; rat, with CMC): 9%
Deaths (Sprague Dawley rats; single oral 1000 mg/kg, 7 days): only one death occurred out of a group of six animals
Observable signs (Sprague Dawley rats; Groups 1-3 (doses 0.1 to 1000 mg/kg in six groups)): no observable signs
Observable signs (Sprague Dawley rats; Groups 4-6 (doses 0.1 to 1000 mg/kg in six groups)): increased motor activity within two hours post-dose
AUC(0-inf) [2]: 9140 ng·h/mL
AUC(0-t) [2]: 2580 ng·h/mL
Cmax [2]: 3350 ng/mL
Tmax [2]: 15 min
Tmax ([3]; male, Sprague-Dawley, plasma, iv, […]): 4.98 min
Cmax of d-amphetamine relative to d-amphetamine ([3]; bolus intravenous): about one-fourth
